Assay results: patent US10456389B2, “Extended release nicotinamide formulation” (Ferring B.V., priority 2013, dated 2019)
Converted amounts (≈) assume the structure as drawn.

Experiments:
[1] = Release testing, USP paddle apparatus, purified water, UV at 260 nm; format: physicochemical; conditions: raw material, 0.2 g in 100 ml water; FIG. 1
Procedure: Dissolution experiments were performed in a Sotax AT7 Dissolution apparatus, USP paddle.
All assays were performed in a Shimadzu UV-1700 spectrophotometer.
Release testing was performed in a USP paddle apparatus using 500 ml purified water as release medium and operated at 100 rpm. The results were quantified by a Shimadzu spectrophotometer at 260 nm after dilution 1:50.
To assess whether the ethylcellulose film coating was able to delay the release of nicotinamide, the release from the coated 95% granules (RD1302-2-C1) was tested and compared to the release from the raw material. Nicotinamide from the raw material (0.2 g in 100 ml water) was dissolved very quickly and within 5 minutes. […] Release of the remaining nicotinamide started later than 30 minutes, and after 3 hours 85% had been released. This means that release of nicotinamide can be released over 3 hours by applying an ethylcellulose film.

[2] = cited from earlier work

Time until dissolved [1]: ≤ 5 min
SMILES: NC(=O)c1cccnc1 [Nicotinamide]
Solubility in 96% ethanol ([2]; 96% ethanol): 660 mg/mL (≈ 5400 mM)
Solubility in water ([2]; water, 20° C.): 690 mg/mL (≈ 5650 mM)
